Entries after “also recorded” stand apart in the source; their conditions may differ.

Experimental findings from patent US11365161B2, “Urea ammonium sulphate-based composition and method for the manufacture thereof” (YARA INTERNATIONAL ASA, priority 2018, dated 2022) are described below.

What all share (format): physicochemical
A short description of data set [1]: Volatilization measurements (ammonia release, 2 L diffusion kit, Draeger tube). The settings on record: YaraVera Amidas product comprising 462 ppm nBTPT, treated with stabilizer (FIG. 1, Table 1). From the text: 1. Volatilization Measurements (Ammonia Release 2 L Diffusion Kit) […] Through the lid, a […] tube is placed for the measurement of vol % ammonia. The […] tube turns from yellow to bleu/purple when ammonia is absorbed by the tube. The amount of vol % ammonia released can be followed in time. Experiment 1 defines the problem.

Data set [2] is described as follows: Stability of nBTPT on urea ammonium sulphate (YaraVera Amidas) during storage, HPLC analysis of nBTPT content. The following applies: for Stabilizing effect on nBTPT (MgSO4/MgO combinations): Experiment 4: YaraVera Amidas product comprising 462 ppm nBTPT (FIG. 4). Here is the method:
For lab scale experiments, 1.2 kg of solid fertilizer material was added to a lab scale drum. […] A residence time of 10 minutes was applied and the rotating speed of the drum was consequently the same in each experiment. […] Before use, the moisture-repellent coating was preheated to 80° C. Larger scale experiments with amounts up to 40 kg of fertilizer material were performed in a concrete mixer. The samples were stored under several conditions, dependent on the type of samples: • Bagged at room temperature (18-25° C.) • Bagged at 40° C. • Open to air at room temperature (18-25° C.) 3.

Data set [3] in a line: pH of MgSO4 grades.

In the case of `[O]=[Ca]` [CaO, calcium oxide], in data set [1], the Ammonia release result is reported as “producing ammonia”.
Regarding `O=S(=O)([O-])[O-].[Na+].[Na+]` [Na2SO4, reference compound], the “nBTPT stability on the YaraVera Amidas product” value in data set [2] (Experiment 3: open plastic containers at room temperature for 21 days, 462 ppm nBTPT (FIG. 3)) is “negative effect on the stability of nBTPT”.
Regarding `O=S(=O)([O-])[O-].[Mg+2]` [MgSO4, magnesium sulphate], the “Stabilizing effect on nBTPT in the presence of UAS” value in data set [2] (Experiment 2: open to air at room temperature 40 days (FIG. 2A) and in bags at 40 °C 8 days (FIG. 2B), 462 ppm nBTPT) is listed as “comparable with the effect of the prior art compound (CaO)”. In addition, the “Stabilizing effect on nBTPT (MgSO4/MgO combinations)” value in data set [2] is reported as “little effect”. The “Stabilizing effect at higher level of magnesium sulphate” value in data set [2] (more than 1 weight % magnesium sulphate in the composition) is listed as “did not produce a proportionally better stabilizing effect”. The Ammonia release result in data set [1] is “no ammonia release; also recorded: no ammonia is generated”.
In data set [3], `O=S(=O)([O-])[O-].[Mg+2]` [MgSO4 99.999%, MgSO4 anhydrous, 99.999%] had a pH of 6.1.
In the case of `[O]=[Mg]` [MgO, magnesium oxide, reference compound], the “Stabilizing effect on nBTPT (MgSO4/MgO combinations)” value in data set [2] is “more effective than CaO”. Moreover, the Ammonia release result in data set [1] is reported as “producing ammonia”.
`O=S(=O)([O-])[O-].[Ca+2]` [CaSO4, CaSO4 anhydrous]: the Ammonia release entry in data set [1] was “no ammonia release”.
With `O=S(=O)([O-])[O-].[Mg+2]` [MgSO4 99.5%, MgSO4 anhydrous, >99.5%], the pH in data set [3] is reported as 8.5.
